Measured values from patent US11572369B2, “Bicyclic pyridine compositions and methods of using the same for cancer therapy” (UNIVERSITY OF SOUTH CAROLINA, priority 2019, dated 2023).

Key:
Assay in all cases: KINOMEscan
Assay type in all cases: binding
Settings in all cases: 2000 nM
ROS1 = molecular target: T1, ROS1 (Homo sapiens, UniProt P08922)
T1 construct: DNA label (qPCR read-out); purchased DiscoveRx (KINOMEscan ScanMAX panel)

FLT3(D835H) = molecular target: T2, FLT3(D835H) (Homo sapiens, UniProt P36888, D835H)
T2 construct: purchased DiscoveRx (KINOMEscan scanMAX panel)

EPHA8 = molecular target: T3, EPHA8 (Homo sapiens, UniProt P29322)
T3 construct: purchased DiscoveRx (KINOMEscan scanMAX panel)

ULK2 = molecular target: T4, ULK2 (Homo sapiens, UniProt Q8IYT8)
T4 construct: DNA label (for qPCR read-out); purchased DiscoveRx (KINOMEscan scanMAX panel)

MLK1 = molecular target: T5, MLK1 (Homo sapiens, UniProt P80192)
T5 construct: DNA label (qPCR read-out); purchased KINOMEscan scanMAX panel (DiscoveRx)

[1] = molecular target: ABL1(H396P)-nonphosphorylated (Homo sapiens, UniProt P00519, H396P)
ERBB3 = molecular target: T6, ERBB3 (Homo sapiens, UniProt P21860)
T6 construct: DNA label (qPCR read-out); purchased DiscoveRx (KINOMEscan ScanMAX panel)

PRKG2 = molecular target: T7, PRKG2 (Homo sapiens, UniProt Q13237)
T7 construct: purchased DiscoveRx (KINOMEscan scanMAX panel)

DYRK1A = molecular target: T8, DYRK1A (Homo sapiens, UniProt Q13627)
T8 construct: DNA label (qPCR read-out); purchased KINOMEscan (DiscoveRx) panel

WNK2 = molecular target: T9, WNK2 (Homo sapiens, UniProt Q9Y3S1)
T9 construct: purchased KINOMEscan (DiscoveRx) panel service

CSNK2A1 = molecular target: T10, CSNK2A1 (Homo sapiens, UniProt P68400)
T10 construct: DNA label; purchased DiscoveRx (KINOMEscan scanMAX panel)

MET(M1250T) = molecular target: T11, MET(M1250T) (Homo sapiens, UniProt P08581, M1250T)
T11 construct: purchased DiscoveRx (KINOMEscan scanMAX panel, service)

EPHA3 = molecular target: T12, EPHA3 (Homo sapiens, UniProt P29320)
T12 construct: purchased DiscoveRx (KINOMEscan scanMAX panel)

DDR2 = molecular target: T13, DDR2 (Homo sapiens, UniProt Q16832)
T13 construct: DNA label (qPCR read-out); purchased KINOMEscan (DiscoveRx) panel

RET = molecular target: T14, RET (Homo sapiens, UniProt P07949)
T14 construct: purchased DiscoveRx (KINOMEscan scanMAX panel)

DAPK2 = molecular target: T15, DAPK2 (Homo sapiens, UniProt Q9UIK4)
T15 construct: DNA label; purchased DiscoveRx (KINOMEscan scanMAX panel)

[2] = molecular target: ABL1(Q252H)-phosphorylated (Homo sapiens, UniProt P00519, Q252H)
BMPR1A = molecular target: T16, BMPR1A (Homo sapiens, UniProt P36894)
T16 construct: DNA label (for qPCR read-out); purchased KINOMEscan scanMAX panel (DiscoveRx)

TGFBR2 = molecular target: T17, TGFBR2 (Homo sapiens, UniProt P37173)
T17 construct: DNA label (qPCR read-out); purchased KINOMEscan (DiscoveRx) ScanMAX panel

SNRK = molecular target: T18, SNRK (Homo sapiens, UniProt Q9NRH2)
T18 construct: purchased KINOMEscan (DiscoveRx)

[3] = molecular target: T19, RPS6KA5(Kin.Dom.2-C-terminal) (Homo sapiens, UniProt O75582)
T19 construct: RPS6KA5(Kin.Dom.2); purchased DiscoveRx (KINOMEscan scanMAX panel)

ERK5 = molecular target: T20, ERK5 (Homo sapiens, UniProt Q13164)
T20 construct: DNA label (qPCR read-out); purchased DiscoveRx (KINOMEscan ScanMAX panel)

TESK1 = molecular target: T21, TESK1 (Homo sapiens, UniProt Q15569)
T21 construct: DNA label (for qPCR read-out); purchased DiscoveRx (KINOMEscan scanMAX panel, contract assay)

MAST1 = molecular target: T22, MAST1 (Homo sapiens, UniProt Q9Y2H9)
T22 construct: purchased DiscoveRx (KINOMEscan scanMAX panel, service)

CAMKK2 = molecular target: T23, CAMKK2 (Homo sapiens, UniProt Q96RR4)
T23 construct: DNA label (qPCR read-out); purchased KINOMEscan (ScanMAX panel service)

BRK = molecular target: T24, BRK (Homo sapiens, UniProt Q13882)
T24 construct: DNA label (for qPCR read-out); purchased KINOMEscan scanMAX panel (DiscoveRx)

[4] = molecular target: ABL1(T315I)-nonphosphorylated (Homo sapiens, UniProt P00519, T315I)
[5] = molecular target: ABL1(T315I)-phosphorylated (Homo sapiens, UniProt P00519, T315I)
LATS2 = molecular target: T25, LATS2 (Homo sapiens, UniProt Q9NRM7)
T25 construct: purchased KINOMEscan (DiscoveRx) panel service

FLT3(D835V) = molecular target: T26, FLT3(D835V) (Homo sapiens, UniProt P36888, D835V)
T26 construct: purchased DiscoveRx (KINOMEscan scanMAX panel)

SRPK2 = molecular target: T27, SRPK2 (Homo sapiens, UniProt P78362)
T27 construct: purchased KINOMEscan (DiscoveRx)

PCTK2 = molecular target: T28, PCTK2 (Homo sapiens, UniProt Q00537)
T28 construct: purchased DiscoverX (KINOMEscan service)

MKK7 = molecular target: T29, MKK7 (Homo sapiens, UniProt O14733)
T29 construct: DNA label (qPCR read-out); purchased KINOMEscan scanMAX panel (DiscoveRx)

ACVR2B = molecular target: T30, ACVR2B (Homo sapiens, UniProt Q13705)
T30 construct: purchased DiscoveRx (KINOMEscan scanMAX panel, service)

PIK3CA(E545A) = molecular target: T31, PIK3CA(E545A) (Homo sapiens, UniProt P42336, E545A)
T31 construct: DNA label; purchased DiscoveRx (KINOMEscan scanMAX panel)

T23 sequence (Q96RR4 whole entry): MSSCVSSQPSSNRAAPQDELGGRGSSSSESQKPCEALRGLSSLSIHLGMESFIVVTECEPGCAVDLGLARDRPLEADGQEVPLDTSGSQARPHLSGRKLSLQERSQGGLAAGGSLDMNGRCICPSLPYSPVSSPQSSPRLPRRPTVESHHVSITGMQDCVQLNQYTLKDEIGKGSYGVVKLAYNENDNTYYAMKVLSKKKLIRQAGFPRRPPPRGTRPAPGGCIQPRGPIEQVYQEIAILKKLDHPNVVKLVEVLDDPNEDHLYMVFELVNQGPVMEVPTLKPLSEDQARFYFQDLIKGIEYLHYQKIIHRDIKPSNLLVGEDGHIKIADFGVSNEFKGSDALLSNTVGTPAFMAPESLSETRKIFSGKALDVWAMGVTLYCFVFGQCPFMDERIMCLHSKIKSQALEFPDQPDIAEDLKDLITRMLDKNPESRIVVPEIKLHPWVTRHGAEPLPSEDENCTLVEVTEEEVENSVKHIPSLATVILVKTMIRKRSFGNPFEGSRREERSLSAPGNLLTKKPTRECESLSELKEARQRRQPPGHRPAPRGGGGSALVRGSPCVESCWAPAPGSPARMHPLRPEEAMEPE
T22 sequence (Q9Y2H9 whole entry): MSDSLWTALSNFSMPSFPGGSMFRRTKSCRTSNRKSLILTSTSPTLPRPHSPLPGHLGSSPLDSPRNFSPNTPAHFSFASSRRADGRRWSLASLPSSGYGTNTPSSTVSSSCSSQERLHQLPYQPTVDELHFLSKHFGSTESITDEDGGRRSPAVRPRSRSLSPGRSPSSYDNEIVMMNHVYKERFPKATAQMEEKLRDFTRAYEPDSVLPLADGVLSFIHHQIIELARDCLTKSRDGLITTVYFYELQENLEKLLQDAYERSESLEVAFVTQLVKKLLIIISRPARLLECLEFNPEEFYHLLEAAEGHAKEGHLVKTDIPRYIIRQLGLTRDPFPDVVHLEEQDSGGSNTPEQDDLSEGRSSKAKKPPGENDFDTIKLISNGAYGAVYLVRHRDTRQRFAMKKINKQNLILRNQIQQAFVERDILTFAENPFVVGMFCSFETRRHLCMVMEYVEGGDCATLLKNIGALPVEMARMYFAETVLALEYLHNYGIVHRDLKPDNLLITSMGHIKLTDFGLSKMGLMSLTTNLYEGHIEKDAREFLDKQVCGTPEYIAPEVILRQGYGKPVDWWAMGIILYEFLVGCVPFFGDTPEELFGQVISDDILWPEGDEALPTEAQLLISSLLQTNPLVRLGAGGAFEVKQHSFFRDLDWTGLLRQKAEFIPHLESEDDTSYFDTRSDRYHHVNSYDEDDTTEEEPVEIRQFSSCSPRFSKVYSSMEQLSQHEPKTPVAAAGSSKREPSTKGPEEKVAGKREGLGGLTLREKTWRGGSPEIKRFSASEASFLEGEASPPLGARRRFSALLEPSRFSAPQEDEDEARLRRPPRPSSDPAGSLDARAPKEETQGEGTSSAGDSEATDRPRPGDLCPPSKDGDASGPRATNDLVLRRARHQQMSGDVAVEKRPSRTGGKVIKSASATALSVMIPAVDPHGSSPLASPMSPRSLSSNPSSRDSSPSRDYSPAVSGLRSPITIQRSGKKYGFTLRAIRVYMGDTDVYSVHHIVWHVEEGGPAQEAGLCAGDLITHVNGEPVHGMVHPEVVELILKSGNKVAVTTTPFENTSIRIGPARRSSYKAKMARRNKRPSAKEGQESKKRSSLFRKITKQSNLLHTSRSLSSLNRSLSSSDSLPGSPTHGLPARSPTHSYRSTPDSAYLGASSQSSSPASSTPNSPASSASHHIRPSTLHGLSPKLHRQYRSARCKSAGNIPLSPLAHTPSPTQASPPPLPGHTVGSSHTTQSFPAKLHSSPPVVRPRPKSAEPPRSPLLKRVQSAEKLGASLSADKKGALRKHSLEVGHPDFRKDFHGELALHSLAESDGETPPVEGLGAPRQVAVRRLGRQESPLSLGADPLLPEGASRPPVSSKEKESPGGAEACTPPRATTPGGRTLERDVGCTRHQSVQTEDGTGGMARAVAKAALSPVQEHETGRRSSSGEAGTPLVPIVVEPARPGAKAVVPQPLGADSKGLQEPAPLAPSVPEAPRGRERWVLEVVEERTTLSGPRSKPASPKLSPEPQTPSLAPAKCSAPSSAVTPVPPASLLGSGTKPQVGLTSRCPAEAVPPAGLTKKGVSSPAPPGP
T20 sequence (Q13164 whole entry): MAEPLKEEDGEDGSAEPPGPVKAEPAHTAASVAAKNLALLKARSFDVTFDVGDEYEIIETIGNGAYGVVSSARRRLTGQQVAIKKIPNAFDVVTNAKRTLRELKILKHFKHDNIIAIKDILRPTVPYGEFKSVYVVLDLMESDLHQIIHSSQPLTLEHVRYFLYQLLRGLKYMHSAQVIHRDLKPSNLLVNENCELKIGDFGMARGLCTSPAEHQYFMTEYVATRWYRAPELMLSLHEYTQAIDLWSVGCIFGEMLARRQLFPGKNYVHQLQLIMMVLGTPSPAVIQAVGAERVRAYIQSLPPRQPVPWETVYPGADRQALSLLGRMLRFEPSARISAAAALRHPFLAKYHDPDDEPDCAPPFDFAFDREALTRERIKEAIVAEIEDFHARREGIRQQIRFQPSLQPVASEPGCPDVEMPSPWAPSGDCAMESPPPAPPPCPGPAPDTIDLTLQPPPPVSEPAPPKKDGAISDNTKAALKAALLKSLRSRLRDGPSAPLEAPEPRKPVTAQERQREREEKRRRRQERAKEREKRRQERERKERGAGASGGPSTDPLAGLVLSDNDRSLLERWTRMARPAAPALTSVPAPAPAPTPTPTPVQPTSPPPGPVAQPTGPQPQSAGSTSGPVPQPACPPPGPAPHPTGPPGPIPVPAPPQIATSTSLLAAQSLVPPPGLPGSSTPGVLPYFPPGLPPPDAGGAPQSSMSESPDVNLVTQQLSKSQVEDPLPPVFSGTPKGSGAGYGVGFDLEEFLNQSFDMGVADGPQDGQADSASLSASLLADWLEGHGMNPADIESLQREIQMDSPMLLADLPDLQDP
T28 sequence (Q00537 whole entry): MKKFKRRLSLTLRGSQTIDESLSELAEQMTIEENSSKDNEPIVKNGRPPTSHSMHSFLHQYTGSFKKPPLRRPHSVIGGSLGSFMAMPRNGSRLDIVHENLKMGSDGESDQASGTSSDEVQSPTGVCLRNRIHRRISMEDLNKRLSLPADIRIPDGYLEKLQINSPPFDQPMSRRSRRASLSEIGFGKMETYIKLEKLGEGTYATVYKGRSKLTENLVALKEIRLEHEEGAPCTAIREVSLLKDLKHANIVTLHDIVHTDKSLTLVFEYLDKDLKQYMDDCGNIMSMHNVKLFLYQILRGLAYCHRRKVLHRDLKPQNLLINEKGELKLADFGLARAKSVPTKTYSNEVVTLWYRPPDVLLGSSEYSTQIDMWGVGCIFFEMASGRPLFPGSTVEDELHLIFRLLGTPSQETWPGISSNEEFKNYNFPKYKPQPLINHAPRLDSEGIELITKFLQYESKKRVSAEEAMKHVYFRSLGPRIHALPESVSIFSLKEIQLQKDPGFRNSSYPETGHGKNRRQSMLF
T19 sequence (O75582 426-687 limits assumed): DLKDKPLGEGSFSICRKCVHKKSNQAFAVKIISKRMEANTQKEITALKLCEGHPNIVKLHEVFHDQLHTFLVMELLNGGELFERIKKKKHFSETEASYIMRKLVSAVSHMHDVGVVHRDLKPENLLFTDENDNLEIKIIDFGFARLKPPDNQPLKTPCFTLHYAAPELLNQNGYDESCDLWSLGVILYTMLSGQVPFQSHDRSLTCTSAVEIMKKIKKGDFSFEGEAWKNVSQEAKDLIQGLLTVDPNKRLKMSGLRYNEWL
T27 sequence (P78362 whole entry): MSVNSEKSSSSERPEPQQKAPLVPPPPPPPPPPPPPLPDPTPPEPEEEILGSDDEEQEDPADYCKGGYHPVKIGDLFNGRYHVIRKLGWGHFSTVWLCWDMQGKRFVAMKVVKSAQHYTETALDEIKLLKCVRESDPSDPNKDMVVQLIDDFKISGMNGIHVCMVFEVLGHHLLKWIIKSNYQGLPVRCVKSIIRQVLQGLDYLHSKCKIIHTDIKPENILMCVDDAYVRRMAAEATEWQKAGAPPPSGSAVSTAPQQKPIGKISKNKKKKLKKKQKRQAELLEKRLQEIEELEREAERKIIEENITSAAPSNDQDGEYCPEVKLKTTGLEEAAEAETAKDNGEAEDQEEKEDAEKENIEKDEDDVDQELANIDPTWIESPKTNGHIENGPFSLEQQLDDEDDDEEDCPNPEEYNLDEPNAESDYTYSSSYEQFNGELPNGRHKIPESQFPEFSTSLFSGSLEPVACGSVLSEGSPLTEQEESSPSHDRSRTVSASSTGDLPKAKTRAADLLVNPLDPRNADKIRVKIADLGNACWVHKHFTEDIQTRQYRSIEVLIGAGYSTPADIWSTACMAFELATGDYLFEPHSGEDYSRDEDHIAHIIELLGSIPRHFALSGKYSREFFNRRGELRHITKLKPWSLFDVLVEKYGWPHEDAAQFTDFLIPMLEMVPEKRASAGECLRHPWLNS
T16 sequence (P36894 24-532): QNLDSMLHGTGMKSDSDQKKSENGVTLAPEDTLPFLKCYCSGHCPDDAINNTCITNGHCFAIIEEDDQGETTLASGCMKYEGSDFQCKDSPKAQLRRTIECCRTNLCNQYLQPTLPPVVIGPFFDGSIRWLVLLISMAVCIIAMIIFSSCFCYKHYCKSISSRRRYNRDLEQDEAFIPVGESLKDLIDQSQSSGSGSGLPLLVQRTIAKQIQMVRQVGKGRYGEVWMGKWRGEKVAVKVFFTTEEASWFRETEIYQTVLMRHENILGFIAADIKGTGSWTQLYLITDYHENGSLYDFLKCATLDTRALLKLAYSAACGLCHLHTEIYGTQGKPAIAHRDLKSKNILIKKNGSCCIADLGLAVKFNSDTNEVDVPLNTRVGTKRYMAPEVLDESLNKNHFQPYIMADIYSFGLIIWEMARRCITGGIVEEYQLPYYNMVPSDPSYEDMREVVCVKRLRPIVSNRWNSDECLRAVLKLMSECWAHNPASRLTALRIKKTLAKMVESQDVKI

## CN(C)C(=O)c1ccc(N2CCCN(c3ccnc4sc(C(N)=O)c(N)c34)CC2)cc1 [15u, 3-amino-4-(4-(4-(dimethylcarbamoyl)phenyl)-1,4-diazepan-1-yl)thieno[2,3-b]pyridine-2-carboxamide]
ROS1
  % Ctrl: 95 % Ctrl
FLT3(D835H)
  % Ctrl: 63 % Ctrl
EPHA8
  % Ctrl: 94 % Ctrl
ULK2
  % Ctrl: 90 % Ctrl
MLK1
  % Ctrl: 95 % Ctrl
[1]
  % Ctrl: 100 % Ctrl
ERBB3
  % Ctrl: 100 % Ctrl
PRKG2
  % Ctrl: 98 % Ctrl
DYRK1A
  % Ctrl: 50 % Ctrl
WNK2
  % Ctrl: 96 % Ctrl
CSNK2A1
  % Ctrl: 100 % Ctrl
MET(M1250T)
  % Ctrl: 100 % Ctrl
EPHA3
  % Ctrl: 100 % Ctrl
DDR2
  % Ctrl: 80 % Ctrl
RET
  % Ctrl: 93 % Ctrl
DAPK2
  % Ctrl: 75 % Ctrl
[2]
  % Ctrl: 94 % Ctrl
BMPR1A
  % Ctrl: 100 % Ctrl
TGFBR2
  % Ctrl: 100 % Ctrl
SNRK
  % Ctrl: 100 % Ctrl
[3]
  % Ctrl: 95 % Ctrl
ERK5
  % Ctrl: 59 % Ctrl
TESK1
  % Ctrl: 83 % Ctrl
MAST1
  % Ctrl: 92 % Ctrl
CAMKK2
  % Ctrl: 100 % Ctrl
BRK
  % Ctrl: 100 % Ctrl
[4]
  % Ctrl: 100 % Ctrl
[5]
  % Ctrl: 90 % Ctrl
LATS2
  % Ctrl: 94 % Ctrl
FLT3(D835V)
  % Ctrl: 33 % Ctrl
SRPK2
  % Ctrl: 93 % Ctrl
PCTK2
  % Ctrl: 62 % Ctrl
MKK7
  % Ctrl: 100 % Ctrl
ACVR2B
  % Ctrl: 100 % Ctrl
PIK3CA(E545A)
  % Ctrl: 100 % Ctrl

## [2H]C([2H])([2H])N(C(=O)c1ccc(N2CCCN(c3ccnc4sc(C(N)=O)c(N)c34)CC2)cc1)C([2H])([2H])[2H] [15u_D6, 3-amino-4-(4-(4-(bis(methyl-d3)carbamoyl)phenyl)-1,4-diazepan-1-yl)thieno[2,3-b]pyridine-2-carboxamide]
ROS1
  % Ctrl: 100 % Ctrl
FLT3(D835H)
  % Ctrl: 76 % Ctrl
EPHA8
  % Ctrl: 83 % Ctrl
ULK2
  % Ctrl: 83 % Ctrl
MLK1
  % Ctrl: 92 % Ctrl
[1]
  % Ctrl: 76 % Ctrl
ERBB3
  % Ctrl: 88 % Ctrl
PRKG2
  % Ctrl: 90 % Ctrl
DYRK1A
  % Ctrl: 22 % Ctrl
WNK2
  % Ctrl: 94 % Ctrl
CSNK2A1
  % Ctrl: 59 % Ctrl
MET(M1250T)
  % Ctrl: 96 % Ctrl
EPHA3
  % Ctrl: 87 % Ctrl
DDR2
  % Ctrl: 52 % Ctrl
RET
  % Ctrl: 86 % Ctrl
DAPK2
  % Ctrl: 85 % Ctrl
[2]
  % Ctrl: 75 % Ctrl
BMPR1A
  % Ctrl: 100 % Ctrl
TGFBR2
  % Ctrl: 100 % Ctrl
SNRK
  % Ctrl: 75 % Ctrl
[3]
  % Ctrl: 100 % Ctrl
ERK5
  % Ctrl: 98 % Ctrl
TESK1
  % Ctrl: 100 % Ctrl
MAST1
  % Ctrl: 92 % Ctrl
CAMKK2
  % Ctrl: 87 % Ctrl
BRK
  % Ctrl: 99 % Ctrl
[4]
  % Ctrl: 85 % Ctrl
[5]
  % Ctrl: 78 % Ctrl
LATS2
  % Ctrl: 31 % Ctrl
FLT3(D835V)
  % Ctrl: 14 % Ctrl
SRPK2
  % Ctrl: 100 % Ctrl
PCTK2
  % Ctrl: 100 % Ctrl
MKK7
  % Ctrl: 85 % Ctrl
ACVR2B
  % Ctrl: 86 % Ctrl
PIK3CA(E545A)
  % Ctrl: 92 % Ctrl
